In patent US12545673B2, “Imidazopyridine derivative and pharmaceutical composition comprising same as active ingredient” (TSD LIFE SCIENCES CO., LTD., priority 2019, dated 2026):
Read-outs that look alike come from different tables or passages of the source.

Legend:
MLK1 = MLK1 (Homo sapiens (Human), UniProt P80192); test: Evaluation of inhibitory activity of enzyme units, MLK1 ([γ-33P]-ATP filter assay); format: biochemical
[1] = tested on: acute myeloid leukemia cell line U937; test: Cancer cell proliferation inhibitory activity evaluation 2 (CCK-8), U937; format: cell-based; details: Homo sapiens, read-out: Cancer cell proliferation inhibitory activity U937
Description: (§1) In order to identify whether the compounds have anticancer activity, the acute myeloid leukemia cell line U937, the acute lymphoblastic leukemia cell line Jurkat, the gastric cancer cell lines AGS, […], and the human lung cancer cell line A549 were used. The cell line was cultured using RPMI-1640 medium (U937, Jurkat, AGS, A549) or DMEM (Hs746T) medium containing 10% fetal bovine serum. Welgene products were used as the medium, and hyclone products were used for fetal bovine serum, and 1% of antibiotics for cell culture from Gibco were used as the culture medium.

[2] = tested on: acute lymphoblastic leukemia cell line Jurkat; test: Cancer cell proliferation inhibitory activity evaluation 2 (CCK-8), Jurkat; format: cell-based; details: Homo sapiens
Description: as §1

[3] = tested on: gastric cancer cell line AGS; test: Cancer cell proliferation inhibitory activity evaluation 2 (CCK-8), AGS; format: cell-based; details: Homo sapiens, read-out: Cancer cell proliferation inhibitory activity AGS
Description: as §1

[4] = tested on: gastric cancer cell line Hs746T; test: Cancer cell proliferation inhibitory activity evaluation 2 (CCK-8), Hs746T; format: cell-based; details: Homo sapiens
Description: as §1

[5] = tested on: human lung cancer cell line A549; test: Cancer cell proliferation inhibitory activity evaluation 2 (CCK-8), A549; format: cell-based
Description: as §1

MLK3 = MLK3 (Homo sapiens (Human), UniProt Q16584); test: Evaluation of inhibitory activity of enzyme units, MLK3 ([γ-33P]-ATP filter assay); details: read-out: IC50(nM) MLK3
[6] = 72 h, read-out: Cancer cell proliferation inhibitory activity Jurkat
[7] = 72 h, read-out: Cancer cell proliferation inhibitory activity Hs746T
[8] = A549, 72 h, read-out: Cancer cell proliferation inhibitory activity A549
[9] = U-937, 10 μM, 72 hours, CCK-8 (Table 3)
[10] = 10 μM, 72 hours, CCK-8, read-out: Cancer cell proliferation inhibitory activity Jurkat
[11] = 10 μM, 72 hours, CCK-8, read-out: Cancer cell proliferation inhibitory activity Hs746T
[12] = A549, 10 μM, 72 hours, CCK-8, read-out: Cancer cell proliferation inhibitory activity A549

Chain of MLK3 (Q16584 whole entry, looked up): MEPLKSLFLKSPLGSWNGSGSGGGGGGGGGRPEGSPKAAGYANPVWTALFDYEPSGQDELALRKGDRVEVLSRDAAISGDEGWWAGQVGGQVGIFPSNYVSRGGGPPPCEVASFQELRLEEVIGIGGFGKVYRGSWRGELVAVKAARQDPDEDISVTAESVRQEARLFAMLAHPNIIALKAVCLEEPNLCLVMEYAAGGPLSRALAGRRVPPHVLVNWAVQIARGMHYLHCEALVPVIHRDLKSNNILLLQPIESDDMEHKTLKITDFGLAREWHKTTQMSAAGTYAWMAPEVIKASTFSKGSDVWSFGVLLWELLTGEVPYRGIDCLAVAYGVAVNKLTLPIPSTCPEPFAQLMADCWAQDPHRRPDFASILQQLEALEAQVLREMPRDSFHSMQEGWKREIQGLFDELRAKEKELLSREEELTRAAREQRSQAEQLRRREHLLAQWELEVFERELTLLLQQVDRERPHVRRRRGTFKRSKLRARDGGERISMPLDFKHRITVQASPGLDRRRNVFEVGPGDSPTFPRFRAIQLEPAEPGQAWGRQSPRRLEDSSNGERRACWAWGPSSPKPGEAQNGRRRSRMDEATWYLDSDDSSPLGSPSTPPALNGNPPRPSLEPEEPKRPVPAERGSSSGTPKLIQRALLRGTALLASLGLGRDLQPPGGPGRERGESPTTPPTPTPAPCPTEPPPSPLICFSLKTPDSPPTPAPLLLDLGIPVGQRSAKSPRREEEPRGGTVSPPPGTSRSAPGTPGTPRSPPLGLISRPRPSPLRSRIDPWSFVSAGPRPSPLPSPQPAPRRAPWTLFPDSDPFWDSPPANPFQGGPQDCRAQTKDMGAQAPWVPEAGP
Chain of MLK1 (P80192 whole entry, looked up): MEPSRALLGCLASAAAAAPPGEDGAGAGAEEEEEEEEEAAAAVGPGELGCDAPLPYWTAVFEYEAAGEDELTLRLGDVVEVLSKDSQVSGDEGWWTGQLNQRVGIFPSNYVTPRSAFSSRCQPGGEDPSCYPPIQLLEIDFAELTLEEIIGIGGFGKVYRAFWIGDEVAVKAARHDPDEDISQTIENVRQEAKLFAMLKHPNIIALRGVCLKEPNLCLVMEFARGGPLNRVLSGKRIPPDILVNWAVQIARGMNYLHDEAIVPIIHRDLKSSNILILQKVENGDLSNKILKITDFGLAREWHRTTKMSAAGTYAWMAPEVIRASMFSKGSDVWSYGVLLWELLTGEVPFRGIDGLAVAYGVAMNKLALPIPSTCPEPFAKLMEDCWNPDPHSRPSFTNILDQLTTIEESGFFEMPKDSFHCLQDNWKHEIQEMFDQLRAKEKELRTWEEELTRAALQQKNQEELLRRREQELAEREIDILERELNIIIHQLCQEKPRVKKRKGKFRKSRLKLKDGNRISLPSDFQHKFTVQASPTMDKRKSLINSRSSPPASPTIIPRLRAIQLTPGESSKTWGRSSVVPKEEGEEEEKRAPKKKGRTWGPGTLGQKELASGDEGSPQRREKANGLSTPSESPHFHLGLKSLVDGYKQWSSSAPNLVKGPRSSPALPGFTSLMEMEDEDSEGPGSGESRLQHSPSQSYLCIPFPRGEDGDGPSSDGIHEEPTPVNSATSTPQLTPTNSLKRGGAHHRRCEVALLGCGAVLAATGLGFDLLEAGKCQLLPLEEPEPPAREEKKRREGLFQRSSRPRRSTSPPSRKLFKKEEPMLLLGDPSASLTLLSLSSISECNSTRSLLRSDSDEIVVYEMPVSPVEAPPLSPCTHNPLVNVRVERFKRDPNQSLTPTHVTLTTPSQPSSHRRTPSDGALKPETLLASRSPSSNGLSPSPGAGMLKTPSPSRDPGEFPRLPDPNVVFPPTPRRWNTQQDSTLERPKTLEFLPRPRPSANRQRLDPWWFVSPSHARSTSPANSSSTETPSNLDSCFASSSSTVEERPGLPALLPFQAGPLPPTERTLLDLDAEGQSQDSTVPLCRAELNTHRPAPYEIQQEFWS

Structure (SMILES)	IC50 (MLK1) [nM]	inhibition at 10 µM ([1]; U-937, 72 h) [%]	inhibition at 10 µM [2, 6] [%]	inhibition at 10 µM ([3]; 72 h) [%]	inhibition at 10 µM [4, 7] [%]	inhibition at 10 µM [5, 8] [%]	IC50 (MLK3) [nM]	inhibition at 10 µM [1, 9] [%]	inhibition at 10 µM [2, 10] [%]	inhibition at 10 µM ([3]; 10 μM, 72 hours, CCK-8) [%]	inhibition at 10 µM [4, 11] [%]	inhibition at 10 µM [5, 12] [%]
CCS(=O)(=O)N1CC[C@H](Nc2c(Br)cnc3nc(-c4cc(C)n(-c5cccc(NC(=O)CN(C)C)c5)c4C)[nH]c23)C1 [Example 64, (S)—N-(3-(3-(6-bromo-7-((1-(ethylsulfonyl)pyrrolidine-3-yl)amino)-1H-imidazo[4,5-b]pyridine-2-yl)-2,5-dimethyl-1H-pyrrol-1-yl)phenyl)-2-(dimethylamino) acetamide]	34	> 50	> 50	> 50	> 50	> 50	14					
CCS(=O)(=O)N1CC[C@H](Nc2c(Br)cnc3nc(-c4cc(C)n(-c5ccc(C(=O)N6CCN(C)CC6)cc5)c4C)[nH]c23)C1 [Example 67, (S)-(4-(3-(6-bromo-7-((1-(ethylsulfonyl)pyrrolidine-3-yl)amino)-1H-imidazo[4,5-b]pyridine-2-yl)-2,5-dimethyl-1H-pyrrol-1-yl)phenyl) (4-methylpiperazine-1-yl) methanone]	32	> 50	> 50	> 50	10 to 50	10 to 50	19					
CCS(=O)(=O)N1CC[C@H](Nc2c(Br)cnc3[nH]c(-c4cc(C)n(-c5cccc(C(=O)N(C)CCN(C)C)c5)c4C)nc23)C1 [Example 61, (S)-3-(3-(6-bromo-7-((1-(ethylsulfonyl)pyrrolidine-3-yl)amino)-3H-imidazo[4,5-b]pyridine-2-yl)-2,5-dimethyl-1H-pyrrol-1-yl)-N-(2-(dimethylamino)ethyl)-N-methylbenzamide]	19	> 50	> 50	> 50	> 50	> 50	30					
CCS(=O)(=O)N1CC[C@H](Nc2c(Br)cnc3nc(-c4cc(C)n(-c5cc(NC(=O)CN6CCOCC6)ccc5C)c4C)[nH]c23)C1 [Example 78, N-(3-(3-(6-bromo-7-(((S)-1-(ethylsulfonyl)pyrrolidine-3-yl)amino)-1H-imidazo[4,5-b]pyridine-2-yl)-2,5-dimethyl-1H-pyrrol-1-yl)-4-methylphenyl)-2-morpholinoacetamide]	25	> 50	> 50	> 50	> 50	> 50	47					
CCS(=O)(=O)N1CC[C@H](Nc2c(Br)cnc3[nH]c(-c4cc(C)n(-c5ccc(C(=O)NCCN6CCOCC6)cc5)c4C)nc23)C1 [Example 70, (S)-4-(3-(6-bromo-7-((1-(ethylsulfonyl)pyrrolidine-3-yl)amino)-3H-imidazo[4,5-b]pyridine-2-yl)-2,5-dimethyl-1H-pyrrol-1-yl)-N-(2-morpholinoethyl)benzamide]	36						18	> 50	> 50	> 50	10 to 50	10 to 50
CCS(=O)(=O)N1CC[C@H](Nc2c(Cl)cnc3nc(-c4cc(C)n(-c5ccc(OCCN6CCOCC6)cc5)c4C)[nH]c23)C1 [Example 52, (S)-6-chloro-2-(2,5-dimethyl-1-(4-(2-morpholinoethoxy)phenyl)-1H-pyrrol-3-yl)-N-(1-(ethylsulfonyl)pyrrolidine-3-yl)-1H-imidazo[4,5-b]pyridine-7-amine]	87						324	> 50	> 50		> 50	10 to 50
CCS(=O)(=O)N1CC[C@H](Nc2c(Br)cnc3[nH]c(-c4cc(C)n(-c5ccc(C(=O)NCCN6CCN(C)CC6)cc5)c4C)nc23)C1 [Example 72, (S)-4-(3-(6-bromo-7-((1-(ethylsulfonyl)pyrrolidine-3-yl)amino)-3H-imidazo[4,5-b]pyridine-2-yl)-2,5-dimethyl-1H-pyrrol-1-yl)-N-(2-(4-methylpiperazine-1-yl)ethyl)benzamide]	25	> 50	> 50	> 50	> 50	10 to 50	15					
CCS(=O)(=O)N1CC[C@H](Nc2c(Br)cnc3nc(-c4cc(C)n(-c5cc(C(=O)N6CCOCC6)ccc5C)c4C)[nH]c23)C1 [Example 91, (3-(3-(6-bromo-7-(((S)-1-(ethylsulfonyl)pyrrolidine-3-yl)amino)-1H-imidazo[4,5-b]pyridine-2-yl)-2,5-dimethyl-1H-pyrrol-1-yl)-4-methylphenyl) (morpholino) methanone]	19	> 50	> 50	> 50	> 50	> 50	25					
CCS(=O)(=O)N1CC[C@H](Nc2c(Br)cnc3nc(-c4cc(C)n(-c5cccc(NC(=O)CN6CCN(C)CC6)c5C)c4C)[nH]c23)C1 [Example 87, N-(3-(3-(6-bromo-7-(((S)-1-(ethylsulfonyl)pyrrolidine-3-yl)amino)-1H-imidazo[4,5-b]pyridine-2-yl)-2,5-dimethyl-1H-pyrrol-1-yl)-2-methylphenyl)-2-(4-methylpiperazine-1-yl) acetamide]	24	> 50	> 50	> 50	> 50	> 50	13					
CCS(=O)(=O)N1CC[C@H](Nc2c(Br)cnc3nc(-c4cc(C)n(-c5cccc(NC(=O)CCN(C)C)c5C)c4C)[nH]c23)C1 [Example 79]	35	> 50	> 50	> 50	> 50	> 50	7					
CCS(=O)(=O)N1CC[C@H](Nc2c(Br)cnc3[nH]c(-c4cc(C)n(-c5cccc(C(=O)NCCN6CCOCC6)c5)c4C)nc23)C1 [Example 69, (S)-3-(3-(6-bromo-7-((1-(ethylsulfonyl)pyrrolidine-3-yl)amino)-3H-imidazo[4,5-b]pyridine-2-yl)-2,5-dimethyl-1H-pyrrol-1-yl)-N-(2-morpholinoethyl)benzamide]	22	> 50	> 50	> 50	10 to 50	10 to 50	13					
CCS(=O)(=O)N1CC[C@H](Nc2c(Br)cnc3nc(-c4cc(C)n(-c5ccc(NC(=O)CN6CCN(C)CC6)cc5C)c4C)[nH]c23)C1 [Example 75, N-(4-(3-(6-bromo-7-(((S)-1-(ethylsulfonyl)pyrrolidine-3-yl)amino)-1H-imidazo[4,5-b]pyridine-2-yl)-2,5-dimethyl-1H-pyrrol-1-yl)-3-methylphenyl)-2-(4-methylpiperazine-1-yl) acetamide]	30	> 50	> 50	> 50	> 50	> 50	16					
CCS(=O)(=O)N1CC[C@H](Nc2c(Br)cnc3nc(-c4cc(C)n(-c5cccc(C(=O)N6CCOCC6)c5C)c4C)[nH]c23)C1 [Example 83, (3-(3-(6-bromo-7-(((S)-1-(ethylsulfonyl)pyrrolidine-3-yl)amino)-1H-imidazo[4,5-b]pyridine-2-yl)-2,5-dimethyl-1H-pyrrol-1-yl)-2-methylphenyl) (morpholino) methanone]	22	> 50	> 50	> 50	> 50	10 to 50	12					
CCS(=O)(=O)N1CC[C@H](Nc2c(Br)cnc3nc(-c4cc(C)n(-c5cccc(NC(=O)CN6CCN(C)CC6)c5)c4C)[nH]c23)C1 [Example 65]	42	> 50	> 50	> 50	> 50	< 10	26					
CCS(=O)(=O)N1CC[C@H](Nc2c(Cl)cnc3[nH]c(-c4cc(C)n(-c5cc(NS(C)(=O)=O)ccc5C)c4C)nc23)C1 [Example 51, N-(3-(3-(6-chloro-7-(((S)-1-(ethylsulfonyl)pyrrolidine-3-yl)amino)-3H-imidazo[4,5-b]pyridine-2-yl)-2,5-dimethyl-1H-pyrrol-1-yl)-4-methylphenyl) methanesulfonamide]	53						330	> 50	> 50		> 50	10 to 50
